Experimental data published in ChEMBL document CHEMBL1155227, “Identification of N-(5-tert-butyl-isoxazol-3-yl)-N'-{4-[7-(2-morpholin-4-yl-ethoxy)imidazo[2,1-b][1,3]benzothiazol-2-yl]phenyl}urea dihydrochloride (AC220), a uniquely potent, selective, and efficacious FMS-like tyrosine kinase-3 (FLT3) inhibitor” (J Med Chem, 2009).

What was measured:
[1] = biological target: T1, Receptor-type tyrosine-protein kinase FLT3 (Homo sapiens, UniProt P36888); assay: biochemical; assay type: cell-based, HEK293
T1 sequence (P36888 whole entry): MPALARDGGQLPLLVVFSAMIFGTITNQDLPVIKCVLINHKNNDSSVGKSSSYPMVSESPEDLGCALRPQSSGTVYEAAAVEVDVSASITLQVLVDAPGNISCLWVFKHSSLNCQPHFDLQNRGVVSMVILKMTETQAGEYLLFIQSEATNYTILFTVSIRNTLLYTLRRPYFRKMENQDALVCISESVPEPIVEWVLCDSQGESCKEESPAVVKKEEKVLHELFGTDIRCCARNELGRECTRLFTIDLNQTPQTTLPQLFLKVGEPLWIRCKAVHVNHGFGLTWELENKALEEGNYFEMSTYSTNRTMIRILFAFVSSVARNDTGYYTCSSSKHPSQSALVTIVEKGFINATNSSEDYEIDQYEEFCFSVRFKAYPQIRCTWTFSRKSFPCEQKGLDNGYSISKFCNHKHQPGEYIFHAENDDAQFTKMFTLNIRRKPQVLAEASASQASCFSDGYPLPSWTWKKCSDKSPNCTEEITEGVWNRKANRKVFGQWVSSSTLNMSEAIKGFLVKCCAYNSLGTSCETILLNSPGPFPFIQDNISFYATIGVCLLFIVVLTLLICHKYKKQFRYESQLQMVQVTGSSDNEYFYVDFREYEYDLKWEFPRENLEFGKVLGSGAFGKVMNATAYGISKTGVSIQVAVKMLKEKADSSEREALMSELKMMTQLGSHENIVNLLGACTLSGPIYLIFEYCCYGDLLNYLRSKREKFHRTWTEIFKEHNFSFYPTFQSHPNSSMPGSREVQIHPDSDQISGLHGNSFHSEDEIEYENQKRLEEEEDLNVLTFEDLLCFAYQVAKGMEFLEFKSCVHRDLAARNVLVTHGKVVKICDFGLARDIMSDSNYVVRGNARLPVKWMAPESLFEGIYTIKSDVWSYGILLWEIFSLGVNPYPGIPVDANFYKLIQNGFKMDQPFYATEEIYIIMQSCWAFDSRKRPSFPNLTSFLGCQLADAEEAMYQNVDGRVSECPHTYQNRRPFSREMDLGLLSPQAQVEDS
Description: Binding affinity to FLT3 catalytic domain expressed in HEK293 cells by competitive binding assay

MV4-11 = assay: cells; conditions: Homo sapiens, MV4-11, 72 h
Description: Antiproliferative activity against human MV4-11 cells after 72 hrs by cell titer-blue cell viability assay

in vivo [2] = conditions: athymic nude, mouse, po, 10 mg/kg
Description: Half life in athymic nude mouse at 10 mg/kg, po

in vivo [3] = conditions: athymic nude, mouse, po, 10 mg/kg; remark: listed apart in the source
Description: Cmax in athymic nude mouse at 10 mg/kg, po

in vivo [4] = conditions: athymic nude, mouse, plasma, po, 10 mg/kg
Description: AUC (0 to infinity) in athymic nude mouse at 10 mg/kg, po

CC(C)(C)c1cc(NC(=O)Nc2ccc(-c3cn4c(n3)sc3cccc(OCCN5CCOCC5)c34)cc2)no1
Kd [1]: 5.2 nM
IC50 (MV4-11): 9.3 nM

CCN1CCN(C(=O)CCc2ccc3c(c2)sc2nc(-c4ccc(NC(=O)Nc5cc(C(C)(C)C)on5)cc4)cn23)CC1
Kd [1]: 2 nM
IC50 (MV4-11): 0.66 nM

CCN1CCN(Cc2ccc3c(c2)sc2nc(-c4ccc(NC(=O)Nc5cc(C(C)(C)C)on5)cc4)cn23)CC1
Kd [1]: 1.1 nM
IC50 (MV4-11): 0.38 nM

CC(C)(C)c1cc(NC(=O)Nc2ccc(-c3cn4c(n3)sc3cc(CCCN5CCOCC5)ccc34)cc2)no1
Kd [1]: 1.3 nM
half-life (in vivo [2]): 2.3 h
IC50 (MV4-11): 0.53 nM
Cmax (in vivo [3]): 2190 nM
AUC(0-inf) (in vivo [4]): 14.6 µM·h

CN1CCN(c2ccc3c(c2)sc2nc(-c4ccc(NC(=O)Nc5cc(C(C)(C)C)on5)cc4)cn23)CC1
Kd [1]: 1.2 nM
IC50 (MV4-11): 0.62 nM

CCN1CCN(C(=O)c2ccc3c(c2)sc2nc(-c4ccc(NC(=O)Nc5cc(C(C)(C)C)on5)cc4)cn23)CC1
Kd [1]: 0.98 nM
half-life (in vivo [2]): 6.7 h
IC50 (MV4-11): 0.41 nM
Cmax (in vivo [3]): 490 nM
AUC(0-inf) (in vivo [4]): 0.67 µM·h

CC(C)(C)c1cc(NC(=O)Nc2ccc(-c3cn4c(n3)sc3cc(C(=O)O)ccc34)cc2)no1
Kd [1]: 1.6 nM
half-life (in vivo [2]): 4.5 h
IC50 (MV4-11): 1 nM
Cmax (in vivo [3]): 2090 nM
AUC(0-inf) (in vivo [4]): 21.3 µM·h

CN1CCN(CCCOc2ccc3c(c2)sc2nc(-c4ccc(NC(=O)Nc5cc(C(C)(C)C)on5)cc4)cn23)CC1
Kd [1]: 1.7 nM
IC50 (MV4-11): 0.78 nM

CC(C)(C)c1cc(NC(=O)Nc2ccc(-c3cn4c(n3)sc3cc(OCCN5CCCCC5)ccc34)cc2)no1
Kd [1]: 1.5 nM
IC50 (MV4-11): 0.88 nM

CC(C)(C)c1cc(NC(=O)Nc2ccc(-c3cn4c(n3)sc3cc(OCCCN5CCOCC5)ccc34)cc2)no1
Kd [1]: 0.99 nM
IC50 (MV4-11): 0.79 nM

CC(C)(C)c1cc(NC(=O)Nc2ccc(-c3cn4c(n3)sc3cc(OCCCN5CCN(S(C)(=O)=O)CC5)ccc34)cc2)no1
Kd [1]: 9.7 nM
half-life (in vivo [2]): 4.6 h
IC50 (MV4-11): 1.1 nM
Cmax (in vivo [3]): 1580 nM
AUC(0-inf) (in vivo [4]): 11.7 µM·h

CC(C)(C)c1cc(NC(=O)Nc2ccc(-c3cn4c(n3)sc3ccccc34)cc2)no1
Kd [1]: 1.9 nM
IC50 (MV4-11): 0.35 nM

CC(C)(C)c1cc(NC(=O)Nc2ccc(-c3cn4c(n3)sc3ccc(OCCN5CCOCC5)cc34)cc2)no1
Kd [1]: 2.3 nM
IC50 (MV4-11): 0.56 nM

CC(C)(C)c1cc(NC(=O)Nc2ccc(-c3cn4c(n3)sc3cc(O)ccc34)cc2)no1
Kd [1]: 2.7 nM
IC50 (MV4-11): 0.15 nM

CC(C)(C)c1cc(NC(=O)Nc2ccc(-c3cn4c(n3)sc3cc(CCC(=O)N5CCOCC5)ccc34)cc2)no1
Kd [1]: 1.5 nM
IC50 (MV4-11): 0.23 nM

CC(C)(C)c1cc(NC(=O)Nc2ccc(-c3cn4c(n3)sc3cc(CCC(=O)O)ccc34)cc2)no1
Kd [1]: 1.3 nM
IC50 (MV4-11): 0.41 nM
